Test results reported in ChEMBL document CHEMBL5528053, “Discovery of Novel Isoquinoline Analogues as Dual Tubulin Polymerization/V-ATPase Inhibitors with Immunogenic Cell Death Induction” (J Med Chem, 2024).
The source made the active and inactive calls. The calls are words filed in the database; no cut-off is given here.

Columns and labels:
Tubulin (Homo sapiens) [1] = target: T1, Tubulin (Homo sapiens) (UniProt P68371+Q9H4B7+P0DPH7+P68366+Q13509+Q71U36+P04350+Q3ZCM7+P07437+P68363+Q9BQE3+Q6PEY2+Q13885+Q9BVA1+Q9BUF5); assay: Inhibition of tubulin polymerization (unknown origin) assessed as reduction in intracellular AC-alpha-tubulin at 50 to 200 nM measured for 6 hrs by […] Western blot analysis; type: cell-based; settings: PC-3, dose 50-200 nM
Tubulin (Homo sapiens) [2] = target: T1, Tubulin (Homo sapiens); assay: (§1) Inhibition of tubulin polymerization (unknown origin) measured every 60 secs for 60 mins by microplate reader based analysis; type: protein-complex assay; settings: dose 1.25-40 µM
Tubulin = assay: as §1; type: protein-complex assay, Homo sapiens
Tubulin (Homo sapiens) [3] = target: T1, Tubulin (Homo sapiens); assay: Disruption of microtubule network in human PC-3 cells at 50 to 200 nM incubated for 6 to 24 hrs by immunofluorescence staining based confocal microscopy analysis relative to control; type: cell-based; settings: dose 50-200 nM, time 6-24 hrs
PC-3 [4] = assay: Downregulation of acetyl-alpha tubulin expression in human PC-3 cells incubated for 24 hrs by Western blot analysis; type: functional, cell-based; settings: dose 50-200 nM
PC-3 [5] = assay: Upregulation of detyrosinated-alpha tubulin expression in human PC-3 cells incubated for 24 hrs by Western blot analysis; type: functional, cell-based; settings: dose 50-200 nM
PC-3 [6] = assay: Inhibition of V-ATPase activity in human PC-3 cells at 100 nM measured after 24 hrs by colorimetric assay relative to control; type: cell-based
PC-3 [7] = assay: Induction of cell cycle arrest in human PC-3 cells assessed as accumulation of cells at G1 phase at 50 nM incubated for 24 hrs by flow cytometry analysis (reference value: 49.4%); type: functional
PC-3 [8] = assay: Induction of cell cycle arrest in human PC-3 cells assessed as accumulation of cells at S phase at 200 nM incubated for 24 hrs by flow cytometry analysis (reference value: 31.3%); type: functional
PC-3 [9] = assay: Induction of cell cycle arrest in human PC-3 cells assessed as accumulation of cells at G2/M phase at 100 nM incubated for 24 hrs by flow cytometry analysis (reference value: 19.5%); type: functional
PC-3 [10] = assay: Induction of cell cycle arrest in human PC-3 cells assessed as reduction in CDC2 phosphorylation at Thr161 residue at 50 to 200 nM incubated for 24 hrs by DAPI staining based analysis; type: functional; settings: dose 50-200 nM
PC-3 [11] = assay: Induction of apoptosis in human PC-3 cells measured after 24 hrs by annexin V-FITC and PI staining based flow cytometry analysis; type: functional, cell-based; settings: dose 50-200 nM
PC-3 [12] = assay: Induction of apoptosis in human PC-3 cells assessed as early apoptotic cells at 50 nM measured after 24 hrs by annexin V-FITC and PI staining based flow cytometry analysis (reference value: 1.03%); type: functional
PC-3 [13] = assay: Induction of apoptosis in human PC-3 cells assessed as early apoptotic cells at 200 nM measured after 24 hrs by annexin V-FITC and PI staining based flow cytometry analysis (reference value: 1.03%); type: functional
PC-3 [14] = assay: Induction of apoptosis in human PC-3 cells assessed as late apoptotic cells at 50 nM measured after 24 hrs by annexin V-FITC and PI staining based flow cytometry analysis (reference value: 2.37%); type: functional
PC-3 [15] = assay: Induction of apoptosis in human PC-3 cells assessed as necrotic cells at 50 nM measured after 24 hrs by annexin V-FITC and PI staining based flow cytometry analysis (reference value: 6.01%); type: functional
PC-3 [16] = assay: Induction of apoptosis in human PC-3 cells assessed as necrotic cells at 100 nM measured after 24 hrs by annexin V-FITC and PI staining based flow cytometry analysis (reference value: 6.01%); type: functional
PC-3 [17] = assay: Induction of apoptosis in human PC-3 cells assessed as increase in bax level at 50 to 200 nM incubated for 24 hrs by Western blot analysis; type: functional, cell-based; settings: dose 50-200 nM
PC-3 [18] = assay: Induction of apoptosis in human PC-3 cells assessed as upregulation of cleaved caspase-3 level at 50 to 200 nM incubated for 24 hrs by Western blot analysis; type: functional, cell-based; settings: dose 50-200 nM
[19] = Toxicity in ICR mouse assessed as effect on WBC count at 10 mg/kg, ip measured for 14 days; type: organism-based; settings: in vivo, 336 h, time 14 day
PC-3 [20] = assay: Inhibition of autophagy in human PC-3 cells assessed as increase in number of autophagosomes at 50 to 200 uM measured after 3 hrs by immunofluorescence imaging based analysis; type: functional, cell-based; settings: dose 50-200 µM
PC-3 [21] = assay: Induction of immunogenic cell death in human PC-3 cells assessed as effect on CRT expression at 50 to 200 nM; type: functional, cell-based; settings: dose 50-200 nM
[22] = Antitumor immunity against mouse RM1 cells homografted in C57BL/6 mouse model assessed as increase in tumor infiltrating helper T lymphocytes at 10 mg/kg, iv administered every two days for 14 days by flow cytometry analysis (reference value: 6.59%); type: functional; settings: time 14 day
RM1 = assay: Antitumor immunity against mouse RM1 cells homografted in C57BL/6 mouse model assessed as increase in tumor infiltrating CD3+CD8+T cells (CTLs) in spleen at 5 to 10 mg/kg, iv administered every two days for 14 days by flow cytometry analysis; type: functional, organism-based; settings: dose 5-10 mg/kg, time 14.0 day

COc1cc(-c2nc(C(N)=O)cc3cc4c(cc23)OCCO4)cc(Br)c1OC
inhibition (Tubulin (Homo sapiens) [1]): Active
inhibition (Tubulin (Homo sapiens) [2]): Dose-Dependent Effect
IC50 (Tubulin): 6.33 µM
Activity (Tubulin (Homo sapiens) [3]): Active
Activity (PC-3 [4]): Dose-Dependent Effect
Activity (PC-3 [5]): Dose-Dependent Effect
inhibition (PC-3 [6]): 26.2%
Activity (PC-3 [7]): 39.8%
Activity (PC-3 [8]): 17.1%
Activity (PC-3 [9]): 42.8%
Activity (PC-3 [10]): Active
Activity (PC-3 [11]): Dose-Dependent Effect
Activity (PC-3 [12]): 1.93%
Activity (PC-3 [13]): 22.7%
Activity (PC-3 [14]): 3.51%
Activity (PC-3 [15]): 6.91%
Activity (PC-3 [16]): 6.41%
Activity (PC-3 [17]): Active
Activity (PC-3 [18]): Active
Activity [19]: Non-Toxic
inhibition (PC-3 [20]): Active
Activity (PC-3 [21]): Active
Activity [22]: 14.2%
Activity (RM1): Active
